Measured values from ChEMBL document CHEMBL1201862, “PubChem BioAssay data set” (2004).
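1) Cells in 96-well plates. 2) Compound, 48 h, 5 concentrations. 3) Linear interpolation between surrounding doses. 4) Unreached endpoint = highest concentration. Here, GI50 denotes the concentration required for 50% inhibition of growth.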 Active and inactive are the calls of the source. No stated cut-off is given here; in the data, active = GI50 up to about 1.1 µM and inactive = higher.

How the values were obtained:
Experiment in all cases: growth of human tumour cells (NCI), 48 h
[1] = system: MDA-MB-435
[2] = system: SNB-19
[3] = system: UACC-62
[4] = system: LOX IMVI
[5] = system: COLO 205
[6] = system: HOP-92
[7] = system: K562
[8] = system: HL-60
[9] = system: HT-29
[10] = system: KM12
[11] = system: SK-MEL-5
[12] = system: MDA-N
[13] = system: CCRF-CEM
[14] = system: A498
[15] = system: SK-MEL-2
[16] = system: SF-295
[17] = system: SNB-75
[18] = system: SW-620
[19] = system: OVCAR-5
[20] = system: M19-MEL

| Compound | GI50 [1] | GI50 [2] | GI50 [3] | GI50 [4] | GI50 [5] | GI50 [6] | GI50 [7] | GI50 [8] | GI50 [9] | GI50 [10] | GI50 [11] | GI50 [12] | GI50 [13] | GI50 [14] | GI50 [15] | GI50 [16] | GI50 [17] | GI50 [18] | GI50 [19] | GI50 [20] |
| --- | --- | --- | --- | --- | --- | --- | --- | --- | --- | --- | --- | --- | --- | --- | --- | --- | --- | --- | --- | --- |
| c1ccc(CN2CCC(CNc3ncnc4ccccc34)C2)cc1 (centres undefined) | 45 µM (inactive) | > 100 µM (inactive) | > 100 µM (inactive) | 45.3 µM (inactive) | 29.5 µM (inactive) | 34.8 µM (inactive) | 23 µM (inactive) | 25.8 µM (inactive) | 33.1 µM (inactive) | > 100 µM (inactive) | 21.2 µM (inactive) | 47.1 µM (inactive) | 41 µM (inactive) | 41.3 µM (inactive) | 38.6 µM (inactive) | 51.4 µM (inactive) | > 100 µM (inactive) | > 100 µM (inactive) | > 100 µM (inactive) |  |
| O=S1OC[C@H](CCCl)O1 (some centres undefined) | > 100 µM (inactive) | > 100 µM (inactive) | > 100 µM (inactive) | 83.6 µM (inactive) | > 100 µM (inactive) | > 100 µM (inactive) | > 100 µM (inactive) | > 100 µM (inactive) | > 100 µM (inactive) | 13.8 µM (inactive) | > 100 µM (inactive) | > 100 µM (inactive) | > 100 µM (inactive) | > 100 µM (inactive) | > 100 µM (inactive) | > 100 µM (inactive) | > 100 µM (inactive) | > 100 µM (inactive) | > 100 µM (inactive) |  |
| c1ccc(C[N+]23CN4CN(CN(C4)C2)C3)cc1 | 22 µM (inactive) | 26.4 µM (inactive) | 17.3 µM (inactive) | 22 µM (inactive) | 18.5 µM (inactive) | 36.1 µM (inactive) | 29.7 µM (inactive) | 24.1 µM (inactive) | 33.2 µM (inactive) | 33.2 µM (inactive) | 23.9 µM (inactive) | 94.4 µM (inactive) | 11.7 µM (inactive) | > 100 µM (inactive) | 17 µM (inactive) | > 100 µM (inactive) | 45.6 µM (inactive) | 24.1 µM (inactive) | > 100 µM (inactive) |  |
| CN(C)/C=N/c1cc(=O)n(C)c(=O)n1C | > 100 µM (inactive) | > 100 µM (inactive) | > 100 µM (inactive) | > 100 µM (inactive) | > 100 µM (inactive) | > 100 µM (inactive) | > 100 µM (inactive) | > 100 µM (inactive) | > 100 µM (inactive) | > 100 µM (inactive) | > 100 µM (inactive) | > 100 µM (inactive) | > 100 µM (inactive) | > 100 µM (inactive) | > 100 µM (inactive) | > 100 µM (inactive) | > 100 µM (inactive) | > 100 µM (inactive) | > 100 µM (inactive) |  |
| COc1ccc2c(c1)c1nn(CCN3CCCCC3)c3ccc4c(=O)n(CCN(C)C)c(=O)n2c4c13 | < 0.0109 µM (active) | < 0.0138 µM (active) | 0.0304 µM (active) | < 0.01 µM (active) | 0.148 µM (active) | 0.152 µM (active) | < 0.01 µM (active) | 0.076 µM (active) | < 0.01 µM (active) | < 0.01 µM (active) | 0.0406 µM (active) | < 0.0109 µM (active) | < 0.01 µM (active) | < 0.022 µM (active) | 0.04 µM (active) | < 0.01 µM (active) | < 0.01 µM (active) | < 0.01 µM (active) | < 0.0105 µM (active) |  |
| CC(C)=CC(O)C/C(C)=C/CC/C(C)=C/CCC1(C)C(CCCO)/C(=C(/C)C=O)CCC1(C)O (centres undefined) | 31 µM (inactive) | 97.7 µM (inactive) | 35.9 µM (inactive) | 32.5 µM (inactive) | 32.7 µM (inactive) | 22.8 µM (inactive) | 2.99 µM (inactive) | 23 µM (inactive) | 26.1 µM (inactive) | 22.2 µM (inactive) | 43.9 µM (inactive) | 22.1 µM (inactive) | 30.5 µM (inactive) | 34.2 µM (inactive) | 59.3 µM (inactive) | 28.8 µM (inactive) | > 100 µM (inactive) | 40.6 µM (inactive) | > 100 µM (inactive) |  |
| CN(CCCNC(=O)c1cc(-c2ccccc2)nc2ccccc12)CCCNC(=O)c1cc(-c2ccccc2)nc2ccccc12 | 1.76 µM (inactive) | 5.97 µM (inactive) | 2.07 µM (inactive) | 1.85 µM (inactive) | 1.79 µM (inactive) | 2.64 µM (inactive) | 1.99 µM (inactive) | 2.19 µM (inactive) | 2 µM (inactive) | 2.02 µM (inactive) | 1.66 µM (inactive) | 1.8 µM (inactive) | 3.73 µM (inactive) | 4.41 µM (inactive) | 1.96 µM (inactive) | 1.77 µM (inactive) | 2.33 µM (inactive) | 1.85 µM (inactive) | 2.28 µM (inactive) |  |
| O=C(c1ccccc1)c1nc2c(Cl)ccc(Cl)c2cc1C(Br)Br |  | 1.54 µM (inactive) | 1.25 µM (inactive) | 1.65 µM (inactive) | 3.19 µM (inactive) |  | 0.311 µM (active) |  |  | 1.14 µM (inactive) | 1.34 µM (inactive) |  | 0.191 µM (active) |  | 2.01 µM (inactive) | 1.2 µM (inactive) | 0.668 µM (active) | 0.308 µM (active) | 1.08 µM (active) | 1.83 µM (inactive) |
| Nc1cc2c(nnn2C2OC(COCc3ccccc3)C(OCc3ccccc3)C2OCc2ccccc2)c(=O)[nH]1 (centres undefined) | 10.9 µM (inactive) | 22.8 µM (inactive) | 14.9 µM (inactive) | 14.1 µM (inactive) | 7.33 µM (inactive) | 28.4 µM (inactive) | 7.41 µM (inactive) | 5.47 µM (inactive) | 14.2 µM (inactive) | 13 µM (inactive) | 7.26 µM (inactive) | 10.2 µM (inactive) | 10.3 µM (inactive) | 48.8 µM (inactive) | 10.5 µM (inactive) | 17.7 µM (inactive) | 25.8 µM (inactive) | 37 µM (inactive) | 27.6 µM (inactive) |  |
| Cc1ccc(C)c2c1CCc1cc3ccccc3nc1-2 |  | > 100 µM (inactive) | > 100 µM (inactive) |  | > 100 µM (inactive) |  | > 100 µM (inactive) |  | > 100 µM (inactive) | > 100 µM (inactive) | > 100 µM (inactive) |  | > 100 µM (inactive) | > 100 µM (inactive) | > 100 µM (inactive) | > 100 µM (inactive) | 98.6 µM (inactive) | > 100 µM (inactive) | > 100 µM (inactive) | > 100 µM (inactive) |
| CCOC(=O)CCC(NC(=O)c1ccc(Oc2nc3ccccc3nc2-c2ccccc2)cc1)C(=O)OCC (centres undefined) | > 52.1 µM (inactive) | 22 µM (inactive) | 32.7 µM (inactive) | 43.7 µM (inactive) | > 100 µM (inactive) | 5.51 µM (inactive) | > 60.4 µM (inactive) | > 100 µM (inactive) | 2.48 µM (inactive) | 33.3 µM (inactive) | > 100 µM (inactive) | 45 µM (inactive) | > 100 µM (inactive) | > 50.1 µM (inactive) | 31.5 µM (inactive) | 23.1 µM (inactive) | 8.85 µM (inactive) | > 100 µM (inactive) | > 55 µM (inactive) |  |
| CC[P+](C)(Cc1ccccc1)c1ccccc1.O=C(OC(C(=O)[O-])C(OC(=O)c1ccccc1)C(=O)O)c1ccccc1 (centres undefined) |  | > 100 µM (inactive) | > 100 µM (inactive) | > 100 µM (inactive) | > 100 µM (inactive) |  | > 100 µM (inactive) |  | > 100 µM (inactive) | > 100 µM (inactive) |  |  |  |  | > 100 µM (inactive) | > 100 µM (inactive) | > 100 µM (inactive) |  | > 100 µM (inactive) | > 100 µM (inactive) |
| CCCCC(=O)OC[n+]1cccc(-c2c(COC(=O)NC(C)C)c(COC(=O)NC(C)C)c3n2CCC3)c1 | 64.9 µM (inactive) | > 92.3 µM (inactive) | 20 µM (inactive) | 21.7 µM (inactive) | 72.8 µM (inactive) | 26.3 µM (inactive) | 38.6 µM (inactive) | 10.7 µM (inactive) | 43 µM (inactive) | > 100 µM (inactive) | 35.6 µM (inactive) | 99.1 µM (inactive) | 7.93 µM (inactive) | 25.8 µM (inactive) | 26.4 µM (inactive) | 52.2 µM (inactive) | 50 µM (inactive) | 38.5 µM (inactive) | > 68.1 µM (inactive) |  |
| CC[C@@]1(O)C(=O)OCc2c1cc1n(c2=O)Cc2c-1nc1ccccc1c2/C=N/NC(=O)c1ccc(N)cc1 | 0.197 µM (active) | 0.0175 µM (active) | 0.0208 µM (active) | 0.0273 µM (active) | 4.53 µM (inactive) | 0.0447 µM (active) | 0.075 µM (active) | 0.0327 µM (active) | 4.68 µM (inactive) | 9.4 µM (inactive) | 0.136 µM (active) | 0.434 µM (active) | < 0.01 µM (active) | 0.33 µM (active) | 5.37 µM (inactive) | 0.123 µM (active) | 0.0489 µM (active) | 0.0796 µM (active) | 5.22 µM (inactive) |  |
| O=c1[nH][nH]c(=S)c(=O)[nH]1 | > 100 µM (inactive) | > 100 µM (inactive) | > 100 µM (inactive) | > 100 µM (inactive) | > 100 µM (inactive) | > 100 µM (inactive) | > 100 µM (inactive) | > 100 µM (inactive) | > 100 µM (inactive) | > 100 µM (inactive) | > 100 µM (inactive) | > 100 µM (inactive) | > 100 µM (inactive) | > 100 µM (inactive) | > 100 µM (inactive) | > 100 µM (inactive) | > 100 µM (inactive) | > 100 µM (inactive) | > 100 µM (inactive) |  |
